Measurements published in patent publication US20220305012A1, “L[…] TREATING SLEEP ISSUES” (EISAI R&D MANAGEMENT CO., LTD., priority 2019, published 2022).

How the values were obtained:
Format in all cases: in vivo, human
[1] = system: Subjects Having Insomnia Disorder; test: Example 2: REM latency; conditions: both doses (FIG. 16)
[2] = system: Subjects Having Insomnia Disorder; test: Example 1: treatment-emergent adverse events; conditions: for TEAEs: Safety Analysis Set
Protocol: (§1) Subjects were randomized in a double-blind manner and received either placebo, 5 mg of lemborexant, or 10 mg of lemborexant (approximately 1:1:1 randomization). All subjects underwent routine safety monitoring through the study, including assessments of treatment-emergent adverse events, 12-lead electrocardiograms, vital signs, weight, and clinical hematology and blood chemistry labs. Suicidality was assessed using the eC-SSRS.
Safety endpoints for this study included the safety and tolerability of lemborexant (1) compared to placebo (during treatment period 1) and (2) in subjects exposed to lemborexant for 3, 6, 9, and 12 months.

[3] = system: Subjects Having Insomnia Disorder; test: Example 3: proportion of subjects whose ISI Total Score decreased by 7 or more points (pooled); conditions: for percentage of subjects whose ISI Total Score decreased by 7 or more points: end of month 1, pooled Examples 1 and 2; for Total Insomnia Severity Index Score Decreased by ≥7 Points, Difference of proportion vs. Placebo / Total Insomnia Severity Index Score Decreased from Baseline to Month 1 by ≥7 Points, Responder No, n (%) / Total Insomnia Severity Index Score Decreased from Baseline to Month 1 by ≥7 Points, Responder Yes, n (%): Month 1
Protocol: The data collected in studies described in Example 1 and Example 2 were pooled and the response of each subject was analyzed.
Table 32 provides the summary and analysis of responders, defined as those subjects whose Total ISI Score decreased at the end of month 1 by 7 or more points compared to baseline. Table 33 provides the summary and analysis of responders, defined as those subjects whose ISI Total Score decreased compared to baseline and was less than 10 at month 1.

[4] = system: Subjects Having Insomnia Disorder; test: Example 1: subjective total sleep time (sTST), Sleep Diary
Source text: As used herein, the term “subjective total sleep time”, abbreviated as “sTST”, means the derived minutes of sleep from sleep onset until the time the subject stopped trying to sleep for the night. In some embodiments, sTST is derived from data entered in a subject's Sleep Diary.
In some embodiments, sleep diaries were used to assess sleep parameters reported by subjects (i.e., subjective assessments) including subjective sleep onset latency (sSOL), subjective sleep efficiency (sSE), subjective WASO (sWASO), and subjective total sleep time (sTST). Subjects were instructed to complete the Sleep Diary developed based on the consensus Sleep Diary as described in Carney et al., “The consensus sleep diary: standardizing prospective sleep self-monitoring,” Sleep 2012; 35(2):287-302. In some embodiments, the Sleep Diary was used to assess the subject's global perception of quality of sleep on the previous night with the following question: “How would you rate the quality of your sleep last night?” Subjects rated the quality of their sleep on a scale from 1 to 9, with 1 being extremely poor and 9 being extremely good. In some embodiments, the Sleep Diary was used to assess subjective ratings of morning sleepiness with the following question: “How alert/sleepy do you feel this morning?” Subjects rated their sleepiness/alertness level on a Likert scale from 1 to 9, with 1 being extremely sleepy and 9 being extremely alert.
sTST—subjective total sleep time: derived minutes of sleep from sleep onset until the time the subject stopped trying to sleep for the night.
as §1
Treatment period 1 began with the first dose of randomized study medication (placebo, 5 mg of lemborexant, or 10 mg of lemborexant). Subjects completed sleep diaries daily in the morning, within one hour of waketime. The subjects were assessed by a clinician one month, two months, three months, and six months after initiation of Treatment period 1. The following assessments were conducted:
In addition to the aforementioned study endpoints, the study included several additional secondary endpoints: • Mean change from study baseline of subjective sleep onset latency, subjective sleep efficiency, subjective wake after sleep onset, and subjective total sleep time at the beginning of treatment (mean of the 7 nights after the first dose in Period 1), at Month 1 and at Month 3. • Mean change from study baseline of subjective total sleep time at Month 6. • Change from study baseline in daytime functioning, assessed as the total score from the 4 items on daytime functioning, on the Insomnia Severity Index, at Months 1, 3, and 6.

Structure (SMILES): Cc1ncc(OC[C@@]2(c3cccc(F)c3)C[C@H]2C(=O)Nc2ccc(F)cn2)c(C)n1 [Lemborexant, (1R,2S)-2-(((2,4-dimethylpyrimidin-5-yl)oxy)methyl)-2-(3-fluorophenyl)-N-(5-fluoropyridin-2-yl)cyclopropanecarboxamide]
- REM latency [1]: greater mean decrease in REM latency compared to treatment with placebo and zolpidem ER
- Deaths ([2]; 5 mg (N = 314)): 0 n (%)
- Other SAEs ([2]; 5 mg (N = 314)): 7 (2.2) n (%)
- SAEs: Congenital anomaly/birth defect ([2]; 5 mg (N = 314)): 0 n (%)
- SAEs: Important medical events ([2]; 5 mg (N = 314)): 1 (0.3) n (%)
- SAEs: Life threatening ([2]; 5 mg (N = 314)): 0 n (%)
- SAEs: Persistent or significant disability or incapacity ([2]; 5 mg (N = 314)): 0 n (%)
- SAEs: Requires inpatient hospitalization or prolongation of existing hospitalization ([2]; 5 mg (N = 314)): 6 (1.9) n (%)
- Serious TEAEs ([2]; 5 mg (N = 314)): 7 (2.2) n (%)
- Severe TEAEs ([2]; 5 mg (N = 314)): 13 (4.1) n (%)
- TEAEs leading to study dose reduced ([2]; 5 mg (N = 314)): 0 n (%)
- TEAEs leading to study drug dose adjustment ([2]; 5 mg (N = 314)): 25 (8.0) n (%)
- TEAEs leading to study drug interrupted ([2]; 5 mg (N = 314)): 13 (4.1) n (%)
- TEAEs leading to study drug withdrawal ([2]; 5 mg (N = 314)): 13 (4.1) n (%)
- Treatment-related TEAEs ([2]; 5 mg (N = 314)): 78 (24.8) n (%)
- TEAEs ([2]; 5 mg (N = 314)): 192 (61.1) n (%)
- Deaths ([2]; 10 mg (N = 314)): 0 n (%)
- Other SAEs ([2]; 10 mg (N = 314)): 9 (2.9) n (%)
- SAEs: Congenital anomaly/birth defect ([2]; 10 mg (N = 314)): 0 n (%)
- SAEs: Important medical events ([2]; 10 mg (N = 314)): 0 n (%)
- SAEs: Life threatening ([2]; 10 mg (N = 314)): 0 n (%)
- SAEs: Persistent or significant disability or incapacity ([2]; 10 mg (N = 314)): 0 n (%)
- SAEs: Requires inpatient hospitalization or prolongation of existing hospitalization ([2]; 10 mg (N = 314)): 9 (2.9) n (%)
- Serious TEAEs ([2]; 10 mg (N = 314)): 9 (2.9) n (%)
- Severe TEAEs ([2]; 10 mg (N = 314)): 8 (2.5) n (%)
- TEAEs leading to study dose reduced ([2]; 10 mg (N = 314)): 0 n (%)
- TEAEs leading to study drug dose adjustment ([2]; 10 mg (N = 314)): 33 (10.5) n (%)
- TEAEs leading to study drug interrupted ([2]; 10 mg (N = 314)): 8 (2.5) n (%)
- TEAEs leading to study drug withdrawal ([2]; 10 mg (N = 314)): 26 (8.3) n (%)
- Treatment-related TEAEs ([2]; 10 mg (N = 314)): 91 (29.0) n (%)
- TEAEs ([2]; 10 mg (N = 314)): 187 (59.6) n (%)
- safety and tolerability (incidence of adverse events) ([2]; Example 1 (Table 11)): safe and well-tolerated
- percentage of subjects whose ISI Total Score decreased by 7 or more points ([3]; 5 mg): 47.3%
- percentage of subjects whose ISI Total Score decreased by 7 or more points ([3]; 10 mg): 47.8%
- Total Insomnia Severity Index Score Decreased by ≥7 Points, Difference of proportion vs. Placebo ([3]; Lemborexant 5 mg): 13.12
- Total Insomnia Severity Index Score Decreased from Baseline to Month 1 by ≥7 Points, Responder No, n (%) ([3]; Lemborexant 5 mg): 283 (48.6) n (%)
- Total Insomnia Severity Index Score Decreased from Baseline to Month 1 by ≥7 Points, Responder Yes, n (%) ([3]; Lemborexant 5 mg): 275 (47.3) n (%)
- Total Insomnia Severity Index Score Decreased by ≥7 Points, Difference of proportion vs. Placebo ([3]; Lemborexant 10 mg): 13.61
- Total Insomnia Severity Index Score Decreased from Baseline to Month 1 by ≥7 Points, Responder No, n (%) ([3]; Lemborexant 10 mg): 261 (44.7) n (%)
- Total Insomnia Severity Index Score Decreased from Baseline to Month 1 by ≥7 Points, Responder Yes, n (%) ([3]; Lemborexant 10 mg): 279 (47.8) n (%)
- difference of proportion of responders (ISI Total Score decreased by 7 or more points) versus placebo ([3]; both doses, month 1 (Table 32)): statistically significant
- subjective total sleep time compared with placebo ([4]; 5 mg and 10 mg, at the equivalent timepoint (Table 5)): greater increase in subjective total sleep time than subjects treated with placebo
- sTST, Mean ([4]; 5 mg, First 7 Nights): 350.80 min
- sTST, Median ([4]; 5 mg, First 7 Nights): 366.0 min
- sTST, Mean ([4]; 5 mg, Month 1): 357.14 min
- sTST, Median ([4]; 5 mg, Month 1): 374.64 min
- sTST, Mean ([4]; 5 mg, Month 3): 386.42 min
- sTST, Median ([4]; 5 mg, Month 3): 397.86 min
- sTST, Mean ([4]; 5 mg, Month 6): 392.08 min
- sTST, Median ([4]; 5 mg, Month 6): 403.43 min
- sTST, Mean ([4]; 5 mg, Study Baseline): 315.52 min
- sTST, Median ([4]; 5 mg, Study Baseline): 332.14 min
- sTST Change from Study Baseline, Mean ([4]; 5 mg, after 1 Month): 39.32 min
- sTST Change from Study Baseline, Median ([4]; 5 mg, after 1 Month): 36.33 min
- sTST Change from Study Baseline, Mean ([4]; 5 mg, after 3 Months): 65.82 min
- sTST Change from Study Baseline, Median ([4]; 5 mg, after 3 Months): 60.71 min
- sTST Change from Study Baseline, Mean ([4]; 5 mg, after 6 Months): 76.21 min
- sTST Change from Study Baseline, Median ([4]; 5 mg, after 6 Months): 70.71 min
- sTST Change from Study Baseline, Mean ([4]; 5 mg, after 7 Nights): 34.29 min
- sTST Change from Study Baseline, Median ([4]; 5 mg, after 7 Nights): 30.71 min
- sTST LSM treatment difference: Lemborexant/Placebo ([4]; 5 mg, change from Study Baseline after 1 Month): 11.760 min
- sTST LSM treatment difference: Lemborexant/Placebo ([4]; 5 mg, change from Study Baseline after 3 Months): 17.374 min
- sTST LSM treatment difference: Lemborexant/Placebo ([4]; 5 mg, change from Study Baseline after 6 Months): 18.555 min
- sTST LSM treatment difference: Lemborexant/Placebo ([4]; 5 mg, change from Study Baseline after 7 Nights): 22.034 min
- sTST, Mean ([4]; 10 mg, First 7 Nights): 351.43 min
- sTST, Median ([4]; 10 mg, First 7 Nights): 365.11 min
- sTST, Mean ([4]; 10 mg, Month 1): 355.96 min
- sTST, Median ([4]; 10 mg, Month 1): 369.23 min
- sTST, Mean ([4]; 10 mg, Month 3): 374.99 min
- sTST, Median ([4]; 10 mg, Month 3): 391.43 min
- sTST, Mean ([4]; 10 mg, Month 6): 379.25 min
- sTST, Median ([4]; 10 mg, Month 6): 398.57 min
- sTST, Mean ([4]; 10 mg, Study Baseline): 306.89 min
- sTST, Median ([4]; 10 mg, Study Baseline): 315.33 min
- sTST Change from Study Baseline, Mean ([4]; 10 mg, after 1 Month): 53.22 min
- sTST Change from Study Baseline, Median ([4]; 10 mg, after 1 Month): 47.77 min
- sTST Change from Study Baseline, Mean ([4]; 10 mg, after 3 Months): 70.95 min
- sTST Change from Study Baseline, Median ([4]; 10 mg, after 3 Months): 64.52 min
- sTST Change from Study Baseline, Mean ([4]; 10 mg, after 6 Months): 78.32 min
- sTST Change from Study Baseline, Median ([4]; 10 mg, after 6 Months): 72.93 min
- sTST Change from Study Baseline, Mean ([4]; 10 mg, after 7 Nights): 46.01 min
- sTST Change from Study Baseline, Median ([4]; 10 mg, after 7 Nights): 42.31 min
- sTST LSM treatment difference: Lemborexant/Placebo ([4]; 10 mg, change from Study Baseline after 1 Month): 22.131 min
- sTST LSM treatment difference: Lemborexant/Placebo ([4]; 10 mg, change from Study Baseline after 3 Months): 21.686 min
- sTST LSM treatment difference: Lemborexant/Placebo ([4]; 10 mg, change from Study Baseline after 6 Months): 22.686 min
- sTST LSM treatment difference: Lemborexant/Placebo ([4]; 10 mg, change from Study Baseline after 7 Nights): 31.796 min
